Like-named read-outs stand apart in the source and are kept apart here. Each block holds one molecule with its values, some of them ahead of it.
Legend:
methemoglobin(Fe3+) = methemoglobin(Fe3+) (Homo sapiens, UniProt P68871+P69905); assay: Redox-cycling of methemoglobin(Fe3+) into oxyhemoglobin(Fe2+) with NADPH/GR system; type: biochemical; details: for concentration at which the shift of maximal absorbance of MetHb from 405 to 410 nm starts being visible: 100 μM MetHb, NADPH
From the text: Since FPIX(Fe^2+) is an inhibitor of hematin polymerization, compounds displaying the ability to reduce FPIX(Fe^3+) into FPIX(Fe^2+) might synergistically contribute with GR inhibition to increased oxidative stress in infected-red blood cells. To evaluate the redox-cycling activity of FPIX(Fe^3+) into FPIX(Fe^2+) we set up an assay using the naphthoquinone, the glutathione reductase/NADPH-based system to regenerate the dihydronaphthoquinone continuously and methemoglobin(Fe^3+) (MetHb). The UV-spectrum of MetHb between 300 nm and 700 nm is characterized by a maximal absorbance at 405 nm and a broad band centered at around 630 nm. […] We used 20 μM methylene blue as positive control of this redox-cycling activity.
In an Eppendorf tube containing 6.4 mg MetHb dissolved in 885 μL GR buffer (47 mM potassium phosphate buffer pH 6.9, 200 mM KCl, 100 mM EDTA), 10 μL 20 mM P_TM25 dissolved in DMSO and 100 μL NADPH dissolved in GR buffer were added. The reaction was started by the addition of 5 μL human GR and then incubated at 37° C. In a 1 mL cuvette 20 μL of the reaction mixture was diluted with 980 μL GR buffer and a UV-spectra between 300 nm and 700 nm was done after 5 min, 10 min, 20 min and 30 min incubation time. The final concentrations in the reaction mixture were 100 μM MetHb, 200 μM P_TM25, 400 μM NADPH and […] hGR, final DMSO concentration 1%.
Spectra were measured after 5 min (blue), 10 min (black), 20 min (green) and 30 min (red).

[1] = biological target: T1, P. falciparum glutathione reductase (PfGR) (Plasmodium falciparum, UniProt Q94655); details: menadione reference, Bauer et al 2006; cited from earlier work
[2] = biological target: T2, human glutathione reductase (hGR) (Homo sapiens, UniProt P00390); details: menadione reference, Bauer et al 2006; cited from earlier work
T2 sequence (P00390 44-522): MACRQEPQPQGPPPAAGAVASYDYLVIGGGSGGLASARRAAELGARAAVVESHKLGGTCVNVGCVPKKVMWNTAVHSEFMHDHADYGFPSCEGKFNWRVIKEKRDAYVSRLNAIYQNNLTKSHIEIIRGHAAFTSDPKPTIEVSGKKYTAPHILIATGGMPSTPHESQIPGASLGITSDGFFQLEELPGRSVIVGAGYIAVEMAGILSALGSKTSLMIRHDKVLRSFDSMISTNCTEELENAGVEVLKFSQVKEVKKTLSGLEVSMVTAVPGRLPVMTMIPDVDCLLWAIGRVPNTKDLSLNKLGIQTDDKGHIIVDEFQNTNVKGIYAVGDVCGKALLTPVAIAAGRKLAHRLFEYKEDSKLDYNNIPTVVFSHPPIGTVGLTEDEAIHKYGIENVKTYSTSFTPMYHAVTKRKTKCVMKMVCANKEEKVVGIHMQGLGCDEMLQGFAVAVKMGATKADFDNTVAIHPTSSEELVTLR

[3] = biological target: T1, P. falciparum glutathione reductase (PfGR); details: menadione against PfGR, Biot et al 2004; cited from earlier work
[4] = system: P. falciparum multidrug-resistant strain Dd2; assay: Dd2 growth inhibition, 3H-hypoxanthine assay; type: cell-based, Plasmodium falciparum; details: Plasmodium falciparum
Method: The IC50 was tested by standard in vitro antiproliferation assays (Desjardins et al, 1979 Antimicrob. Agents Chemother 1979, 16, 710-718). Infected erythrocytes in ring stage (0.5% parasitemia, 2.5% hematocrit) in 96-well plates were exposed to the compounds for 48 h and then to radioactive hypoxanthine for 24 h. The amount of radioactivity in precipitable material served as an index of cell proliferation.

[5] = system: P. falciparum chloroquine sensitive strain 3D7; assay: 3D7 growth inhibition, 3H-hypoxanthine assay; type: cell-based, Plasmodium falciparum; details: read-out: IC50 against Pf 3D7
Method: (§1) The IC50 values against Pf-GHA and MRC-5 were determined by using the less sensitive colorimetric NBT-based lactate dehydrogenase assay (Makler et al, Am. J. Trop. Med. Hyg. 1993, 48 (6), 739-741) based on redox-reactions.
(§2) Parasite Cultures. […] P. falciparum in vitro culture was carried out using standard protocols (Trager et al, 1976 Science, 193, 673-675) with modifications. Briefly, parasites were maintained in tissue culture flasks in human A Rh+ erythrocytes at 5% hematocrit in RPMI 1640 supplemented with 25 mM HEPES, 24 mM NaHCO3, 0.2% (w/v) glucose, 0.03% L-glutamine, 150 μM hypoxanthine, and 0.5% Albumax II® (Invitrogen) in a 5% CO2/air mixture at 37° C., and the medium was changed daily.
(§3) In Vitro Antiparasitic Bioassays. Drug susceptibility of P. falciparum was studied using a modified method (Cameron et al, 2004 J. Biol. Chem. 279, 31429-31439) of the protocol described previously (Desjardins et al, 1979). All assays included CQ diphosphate (Sigma, UK) as a standard and control wells with untreated infected and uninfected erythrocytes. IC50 values were derived by sigmoidal regression analysis (Microsoft Xlfit™).

[6] = system: P. falciparum chloroquine resistant strain K1; assay: K1 growth inhibition, 3H-hypoxanthine assay; type: cell-based, Plasmodium falciparum; details: read-out: IC50 against Pf K1
Method: as §1, §2, §3

Pf-GHA = Pf-GHA growth inhibition, colorimetric NBT-based lactate dehydrogenase assay; type: cell-based; details: Plasmodium falciparum, read-out: IC50 against Pf-GHA
Method: as §1
In Vitro Antiparasitic Bioassays. The strain is maintained in RPMI-1640 medium supplemented with 0.37 mM hypoxanthine, 25 mM HEPES, 25 mM NaHCO3, and 10% O^+ human serum together with 2-4% washed human O^+ erythrocytes. All cultures and assays are conducted under an atmosphere of 4% CO2, 3% O2 and 93% N2. Assays are performed in 96-well microtiter plates, each well containing 10 μL of the watery compound dilutions together with 190 μL of the malaria parasite inoculum (1% parasitaemia, 2% HCT). After 72 h incubation, plates are frozen and stored at −20° C. After thawing, 20 μL of each well is transferred into another plate together with 100 μL Malstat reagent and 20 μL of 1/1 mixture of PES (phenazine ethosulfate, 0.1 mg/mL) and NBT (Nitro Blue Tetrazolium Grade III, 2 mg/mL). Change in colour is measured spectrophotometrically at 655 nm. The results are expressed as % reduction in parasitaemia compared to control wells. Compounds are treated at 5 concentrations (64-16-4-1 and 0.25 μM or μg/mL).

P. berghei ANKA = assay: In vivo 4-day suppressive test in P. berghei-infected mice; parameters: species or system Plasmodium berghei; details: for reduction of the parasitemia: Plasmodium Berghei ANKA-infected CD1 mice
Method: The in vivo tests in the mouse model were done according to a standard protocol (Peters et al Handbook of Animal Models of Infection; Academic Press, London, 1999; pp. 756-771). […] […] For administration, compounds were freshly prepared in 10% DMSO in sterile phosphate-buffered saline the day of use. Two hours post-infection mice received the first treatment by the intraperitoneal route. Mice were further treated on days +1-3. Blood films from tail blood were prepared on day +4, and parasitaemia was determined by microscopic examination of Giemsa-stained blood films. […] […] Mice were treated and levels of parasitemia determined as described.

Pf H = assay: microbe, parasite or virus in culture; details: Plasmodium falciparum, read-out: IC50 against Pf H
P. falciparum 3D7 = assay: microbe, parasite or virus in culture; details: Plasmodium falciparum, 3D7, 48 h
Method: (§4) Twelve parasite strains or isolates from a wide panel of countries (Africa (3D7), Brazil (Bre), Cambodia (K2 and K14), Cameroon (FCM29), Djibouti (Vol1), the Gambia (FCR3), Indochina (W2), Niger (L1), Senegal (8425), Sierra Leone (D6), and Uganda (PA)) were maintained in culture in RPMI 1640 (Invitrogen, Paisley, United Kingdom), supplemented with 10% human serum (Abcys S.A. Paris, France) and buffered with 25 mM HEPES and 25 mM NaHCO3. Parasites were grown in A-positive human blood under controlled atmospheric conditions that consists of 10% O2, 5% CO2 and 85% N2 at 37° C. with a humidity of 95%.
(§5) FQ and synthetic compounds were resuspended and then diluted in RPMI-DMSO (99 v/1 v) to obtain final concentration ranged from 0.125 to 500 nM. […]
(§6) For in vitro isotopic microtests, 25 μL/well of antimalarial drug and 200 μL/well of the parasitized red blood cell suspension (final parasitemia, 0.5%; final hematocrit, 1.5%) were distributed into 96 well plates. Parasite growth was assessed by adding 1 μCi of tritiated hypoxanthine with a specific activity of 14.1 Ci/mmol (Perkin-Elmer, Courtaboeuf, France) to each well at time zero. […] Radioactivity incorporated by the parasites was measured with a scintillation counter (Top Count; Perkin-Elmer).
(§7) The IC50 value was determined by non-linear regression analysis of log-based dose-response curves (Riasmart™, Packard, Meriden, USA).

P. falciparum FCM29 = assay: microbe, parasite or virus in culture; details: Plasmodium falciparum, 48 h
Method: as §4, §5, §6, §7

[7] = biological target: T2, human glutathione reductase (hGR); assay: Inhibition of human glutathione reductase under steady-state conditions; type: biochemical; details: pH 6.9, 25° C., 1 mM GSSG, 100 μM NADPH
[8] = biological target: T1, P. falciparum glutathione reductase (PfGR); assay: 1,4-Naphthoquinone reductase activity of P. falciparum glutathione reductase; type: biochemical; details: with respect to menadione
Method: The reduction assay mixture consisted of 100 mM potassium phosphate buffer pH 6.9, 200 mM KCl, 1 mM EDTA and 100 μM NADPH in a total volume of 1 mL. 1,4-naphthoquinone reductase activity was determined by recording the initial velocities in the presence of increasing naphthoquinone concentrations (0-300 μM). […] For the determination of KM and Vmax values, the steady-state rates were fitted by using nonlinear regression analysis software (Kaleidagraph) to the Michaelis-Menten equation. From these values, the turnover number kcat and the catalytic efficiency kcat/KM were calculated.

[9] = biological target: T1, P. falciparum glutathione reductase (PfGR); assay: biochemical
Method: The standard assay was conducted at 25° C. in a 1 mL-cuvette. The assay mixture contained 100 μM NADPH and 1 mM GSSG in GR buffer (100 mM potassium phosphate buffer, 200 mM KCl, 1 mM EDTA, pH 6.9). […] Inhibitor stock solutions were prepared in 100% DMSO. 1% DMSO concentration was kept constant in the assay cuvette. The reaction was started by adding enzyme (8 mU human GR, 6.5 mU P. falciparum GR) and initial rates of NADPH oxidation were monitored at 340 nm (ε340 nm=6.22 mM^−1 cm^−1).

T1 sequence (Q94655 2-500 limits assumed): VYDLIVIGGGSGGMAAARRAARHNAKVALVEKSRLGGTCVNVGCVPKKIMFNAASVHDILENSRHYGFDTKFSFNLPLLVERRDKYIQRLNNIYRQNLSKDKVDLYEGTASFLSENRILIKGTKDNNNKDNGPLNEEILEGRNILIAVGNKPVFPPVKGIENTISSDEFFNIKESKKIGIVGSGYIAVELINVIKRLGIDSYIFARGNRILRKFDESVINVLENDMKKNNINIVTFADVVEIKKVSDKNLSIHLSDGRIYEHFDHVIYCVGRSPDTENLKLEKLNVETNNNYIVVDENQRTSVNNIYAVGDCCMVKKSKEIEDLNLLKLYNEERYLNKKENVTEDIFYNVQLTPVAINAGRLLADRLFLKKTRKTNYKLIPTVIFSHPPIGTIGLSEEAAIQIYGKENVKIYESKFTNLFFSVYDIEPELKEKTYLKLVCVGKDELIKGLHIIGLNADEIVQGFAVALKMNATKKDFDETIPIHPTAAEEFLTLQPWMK
Sequence of methemoglobin(Fe3+) (P69905 2-142 limits assumed): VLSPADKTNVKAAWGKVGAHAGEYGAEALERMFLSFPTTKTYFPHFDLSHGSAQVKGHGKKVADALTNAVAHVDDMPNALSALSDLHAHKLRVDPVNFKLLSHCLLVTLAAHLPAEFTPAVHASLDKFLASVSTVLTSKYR
Sequence of methemoglobin(Fe3+) (P68871 2-147 limits assumed): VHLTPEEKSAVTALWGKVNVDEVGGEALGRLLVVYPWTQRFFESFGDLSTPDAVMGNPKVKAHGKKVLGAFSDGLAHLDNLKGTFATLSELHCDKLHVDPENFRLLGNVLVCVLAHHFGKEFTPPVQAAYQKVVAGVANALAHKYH

SMILES: CC1=CC(=O)c2ccccc2C1=O [menadione]
concentration at which the shift of maximal absorbance of MetHb from 405 to 410 nm starts being visible (methemoglobin(Fe3+); human GR): 50 µM
IC50 [1]: 42000 nM
IC50 [2]: 27500 nM
Km [3]: 82.2 µM
kcat [3]: 0.16 s⁻¹

SMILES: CCN(CC)CCCC(C)Nc1ccnc2cc(Cl)ccc12 (stereo not shown) [chloroquine, reference compound]
IC50 ([4]; DD2, read-out: IC50 against Dd2): 291 nM
IC50 [5]: ~20 nM
IC50 [6]: ~1000 nM
IC50 (Pf-GHA; 72 h): 50 nM
reduction of the parasitemia (P. berghei ANKA; 1.0 mg/kg): 2.5%
reduction of the parasitemia (P. berghei ANKA; 3.0 mg/kg): 16.6%
inhibition of parasitaemia (P. berghei ANKA; 10 mg/kg i.p.): 98.9%
reduction of the parasitemia (P. berghei ANKA; 10.0 mg/kg): 94.9%
inhibition of parasitaemia (P. berghei ANKA; p.o. at 10 mg/kg/day, positive control): complete inhibition
IC50 (Pf H): 217 nM
IC50 (P. falciparum 3D7; read-out: IC50 against strain 3D7): 21.3 nM
IC90 (P. falciparum 3D7; read-out: IC90 against strain 3D7): 40.4 nM
IC50 (P. falciparum FCM29; read-out: IC50 against strain FCM29): 879 nM
IC90 (P. falciparum FCM29; read-out: IC90 against strain FCM29): 1240 nM

shift of λmax of MetHb (methemoglobin(Fe3+); 20 μM Methylene Blue, same conditions): clear shift
SMILES: CN(C)c1ccc2nc3ccc(=[N+](C)C)cc-3sc2c1 [Methylene Blue, reference compound]

SMILES: CC1=C(C(O)c2ccc(Br)cc2)C(=O)c2ccccc2C1=O (stereo not shown) [P_TM23, 2-[(4-Bromo-phenyl)-hydroxy-methyl]-3-methyl-[1,4]naphthoquinone]
IC50 [7]: 1300 nM
substrate behaviour from catalytic efficiencies kcat/KM [8]: very effective substrates
melting point: 61 to 62 °C
IC50 [9]: 4500 nM

IC50 ([4]; DD2, 48 h exposure then 24 h hypoxanthine, read-out: IC50 against Dd2): 791 nM
IC50 ([5]; Plasmodium falciparum, 3D7): 270 nM
IC50 ([6]; Plasmodium falciparum, K1): 100 nM
melting point: 225 °C (dec.)
SMILES: CC1=C(Cc2ccc(C)cc2)C(=O)C2C=CC=CC2C1=O (stereo not shown) [P_TM21, 2-Methyl-3-(4-methyl-benzyl)-4a,8a-dihydro-[1,4]naphthoquinone]
IC50 (Pf-GHA; 72 h incubation): < 5000 nM

IC50 [7]: 1600 nM
SMILES: CC1=C(Cc2ccc(C(F)(F)F)cc2)C(=O)c2ccccc2C1=O [P_TM29]

SMILES: CC1=C(C(=O)c2ccc(Br)cc2)C(=O)C2C=CC=CC2C1=O (stereo not shown) [P_TM25, 2-Methyl-3-(4-bromo-benzoyl)-4a,8a-dihydro-[1,4]naphthoquinone]
substrate behaviour from catalytic efficiencies kcat/KM [8]: very effective substrates
concentration at which the shift of maximal absorbance of MetHb from 405 to 410 nm starts being visible (methemoglobin(Fe3+); human GR): 50 µM
redox-cycling of methemoglobin in the presence of GR (methemoglobin(Fe3+); 200 μM P_TM25, 100 μM MetHb, 400 μM NADPH, human GR, 37° C.): can undergo redox-cycling of methemoglobin
melting point: 170 to 171 °C
